Results on two substances are retold here after patent US20120058499A1, “Bioluminescent Detection of Protease Activity” (priority 2010, published 2012).

The target of one assay is USP7 (Homo sapiens, UniProt Q93009). Put plainly: Isopeptidase cleavage of substrates (DUB-Glo luminescence / fluorescence), S/B. It counts as biochemical. The following applies: USP7 0.5 nM. On the procedure: (§1) The Ub-amino-luciferin substrate was compared to the Z-Arg-Leu-Arg-Gly-Gly (SEQ ID NO: 1)-amino-luciferin substrate (Promega DUB-Glo™ substrate) to determine the limit of detection of the activities of four different isopeptidases (UCHL3, USP2core, USP7, and USP8). For all enzymes, these two substrates were tested in parallel using the DUB-Glo™ assay system (Promega) according to the manufacturer's instructions. All enzymes were diluted into 50 mM HEPES, pH 7.5, 10 mM DTT, 0.1% Prionex (Sigma-Aldrich). For testing Z-Arg-Leu-Arg-Gly-Gly (SEQ ID NO: 1)-amino-luciferin, final isopeptidase concentrations were as follows: UCHL3 equal to approximately 0.35 to 50 nM; USP2core equal to approximately 10 to 500 nM, USP7 equal to approximately 0.1 to 50 nM, and USP8 equal to approximately 20 to 500 nM. For testing Ub-amino-luciferin, final isopeptidase concentrations were as follows: UCHL3 equal to approximately 0.05 to 50 pM; USP2core, USP7, and USP8 equal to approximately 0.5 to 500 pM. Reactions were assembled through addition of 50 μl of diluted enzyme and 50 μl of DUB-Glo™ reaction mixture supplemented with either Z-Arg-Leu-Arg-Gly-Gly (SEQ ID NO: 1)-amino-luciferin (final concentration of 20 μM) or Ub-amino-luciferin (final concentration of 100 nM). The signal in relative luminescence units (RLUs) was measured at 30 minutes from reaction assembly on an Envision multi-label plate reader (Perkin Elmer). The signal to background ratio (S/B) was calculated as (maximum signal−signal in absence of enzyme)/(signal in absence of enzyme).
Sequence of USP7 (Q93009 whole entry, species assumed): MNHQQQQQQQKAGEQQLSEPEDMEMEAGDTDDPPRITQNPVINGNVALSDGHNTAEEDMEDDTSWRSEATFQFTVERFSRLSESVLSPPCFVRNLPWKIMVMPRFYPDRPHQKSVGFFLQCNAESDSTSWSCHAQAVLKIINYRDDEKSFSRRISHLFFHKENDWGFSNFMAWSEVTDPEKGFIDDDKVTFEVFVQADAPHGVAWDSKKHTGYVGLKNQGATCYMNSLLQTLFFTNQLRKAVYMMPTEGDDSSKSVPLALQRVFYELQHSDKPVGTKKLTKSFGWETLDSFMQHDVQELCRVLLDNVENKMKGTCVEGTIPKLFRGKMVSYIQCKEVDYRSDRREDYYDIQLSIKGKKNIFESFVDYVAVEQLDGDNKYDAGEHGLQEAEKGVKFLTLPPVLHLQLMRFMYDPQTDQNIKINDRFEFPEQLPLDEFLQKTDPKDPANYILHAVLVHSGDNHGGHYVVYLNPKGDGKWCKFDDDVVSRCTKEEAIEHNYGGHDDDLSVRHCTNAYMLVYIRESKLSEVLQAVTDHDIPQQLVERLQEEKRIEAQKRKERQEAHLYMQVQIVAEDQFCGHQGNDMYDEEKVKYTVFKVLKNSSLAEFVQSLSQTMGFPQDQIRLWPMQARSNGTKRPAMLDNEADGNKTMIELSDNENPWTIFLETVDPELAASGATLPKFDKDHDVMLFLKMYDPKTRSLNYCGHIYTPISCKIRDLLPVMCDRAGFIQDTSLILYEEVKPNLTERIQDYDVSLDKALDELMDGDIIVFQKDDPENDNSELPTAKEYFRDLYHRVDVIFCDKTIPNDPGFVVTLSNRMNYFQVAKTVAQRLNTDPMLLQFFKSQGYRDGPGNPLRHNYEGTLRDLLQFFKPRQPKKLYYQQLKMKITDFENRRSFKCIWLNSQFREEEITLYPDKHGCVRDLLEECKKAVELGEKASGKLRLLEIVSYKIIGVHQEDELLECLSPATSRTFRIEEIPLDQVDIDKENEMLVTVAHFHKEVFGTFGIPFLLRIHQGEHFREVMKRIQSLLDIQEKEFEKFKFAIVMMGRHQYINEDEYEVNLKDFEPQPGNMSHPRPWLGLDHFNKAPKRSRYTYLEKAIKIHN
(§2) The Ub-amino-luciferin (Ub-LUC) substrate was compared to the Ub-AMC substrate (FIG. 3) and the Ub-Rhodamine110 (Ub-Rho) substrate (FIG. 4), to determine the limit of detection for the activities of four different isopeptidases (UCHL3, USP2core, USP7, and USP8). All enzymes were diluted into 50 mM Tris, pH 8.0, 5 mM DTT, 0.05% (w/v) CHAPS. Final isopeptidase concentrations were as follows: UCHL3 equal to approximately 2 pM to 40 pM; USP2core, USP7, and USP8 were equal to approximately 10 to 1000 nM. Either Ub-AMC or Ub-Rhodamine110 (final concentration equal to 250 nM) were diluted into 50 mM Tris, pH 8.0, 5 mM DTT, 0.05% (w/v) CHAPS. Reactions were assembled through the addition of 50 μl diluted isopeptidase to 50 μl of either Ub-AMC or Ub-Rhodamine110, and the signal in relative fluorescence units (RFUs) was measured at 30 minutes on an Envision multi-label plate reader (Perkin Elmer). For Ub-AMC, fluorescence was monitored with filters corresponding to excitation at 340 nm and emission at 460 nm. For Ub-Rhodamine110, fluorescence was monitored with filters corresponding to excitation at 485 nm and emission at 531 nm. The signal to background (S/B) was calculated as (maximum signal−signal in absence of enzyme)/(signal in absence of enzyme).

The next assay deals with T1, USP2core (Homo sapiens, UniProt O75604).
T1 construct: USP2core (the common catalytic core domain of the two isoforms of USP2, USP2a and USP2b)
T1 sequence (O75604 267-599 limits assumed): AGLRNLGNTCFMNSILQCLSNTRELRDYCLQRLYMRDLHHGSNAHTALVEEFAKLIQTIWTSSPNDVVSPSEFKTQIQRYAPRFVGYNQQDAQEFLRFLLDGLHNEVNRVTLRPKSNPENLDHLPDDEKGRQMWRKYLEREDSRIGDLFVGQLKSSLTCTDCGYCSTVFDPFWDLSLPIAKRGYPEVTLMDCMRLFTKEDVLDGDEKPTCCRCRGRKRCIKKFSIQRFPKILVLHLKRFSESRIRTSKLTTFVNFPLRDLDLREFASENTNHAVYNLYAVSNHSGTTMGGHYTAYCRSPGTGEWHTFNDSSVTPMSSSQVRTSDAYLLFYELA
The assay is described as above. The following applies: USP2core 0.5 nM. It is filed as biochemical. On the procedure: as §1, §2

Assay [1] relates to UCHL3, USP2core, USP7, and USP8. The experiment in a line: Limit of detection for four isopeptidases, Ub-LUC vs Ub-AMC and Ub-Rhodamine110. It is filed as biochemical. The following applies: the four enzymes. On the procedure: The Ub-amino-luciferin substrate was compared to the Z-Arg-Leu-Arg-Gly-Gly (SEQ ID NO: 1)-amino-luciferin substrate (Promega DUB-Glo™ substrate) to determine the limit of detection of the activities of four different isopeptidases (UCHL3, USP2core, USP7, and USP8). For all enzymes, these two substrates were tested in parallel using the DUB-Glo™ assay system (Promega) according to the manufacturer's instructions. All enzymes were diluted into 50 mM HEPES, pH 7.5, 10 mM DTT, 0.1% Prionex (Sigma-Aldrich). […] The signal in relative luminescence units (RLUs) was measured at 30 minutes from reaction assembly on an Envision multi-label plate reader (Perkin Elmer). The signal to background ratio (S/B) was calculated as (maximum signal−signal in absence of enzyme)/(signal in absence of enzyme).
The Ub-amino-luciferin (Ub-LUC) substrate was compared to the Ub-AMC substrate (FIG. 3) and the Ub-Rhodamine110 (Ub-Rho) substrate (FIG. 4), to determine the limit of detection for the activities of four different isopeptidases (UCHL3, USP2core, USP7, and USP8). […] Reactions were assembled through the addition of 50 μl diluted isopeptidase to 50 μl of either Ub-AMC or Ub-Rhodamine110, and the signal in relative fluorescence units (RFUs) was measured at 30 minutes on an Envision multi-label plate reader (Perkin Elmer). […]

Another assay has as its target SENP2 (Homo sapiens, UniProt Q9HC62). The following applies: enzyme 200 pM; 30 minutes; FIG. 6. On the procedure: (§3) The hSUMO2-amino-luciferin substrate was compared to the Z-Arg-Leu-Arg-Gly-Gly (SEQ ID NO: 1)-amino-luciferin substrate (Promega DUB-Glo™ substrate) to determine the specificity and limit of detection of the activities of six (6) different isopeptidases (USP34, USP7, USP8, SENP1, SENP2, and SENP6). For all enzymes, these two substrates were tested in parallel using the DUB-Glo™ assay system (Promega) according to the manufacturer's instructions. All enzymes were diluted into 50 mM HEPES, pH 7.5, 10 mM DTT, 0.1% Prionex® (Sigma-Aldrich). For testing Z-Arg-Leu-Arg-Gly-Gly (SEQ ID NO: 1)-amino-luciferin, final isopeptidase concentrations for all enzymes were equal to approximately 70 pM to 50 nM. For testing hSUMO2-amino-luciferin, final isopeptidase concentrations for all enzymes were equal to approximately 70 pM to 50 nM. […] The signal in relative luminescence units (RLUs) was measured at 30 minutes from reaction assembly on an EnVision™ multi-label plate reader (Perkin Elmer). The signal to background ratio (S/B) was calculated as (maximum signal/(signal in absence of enzyme) plus or minus the corrected standard deviation of triplicate measurements.

For a further assay, the target named is SENP6 (Homo sapiens, UniProt Q9GZR1). The following applies: enzyme 200 pM; 30 minutes; FIG. 6. On the procedure:
as §3

Sequence of SENP2 (Q9HC62 whole entry, species assumed): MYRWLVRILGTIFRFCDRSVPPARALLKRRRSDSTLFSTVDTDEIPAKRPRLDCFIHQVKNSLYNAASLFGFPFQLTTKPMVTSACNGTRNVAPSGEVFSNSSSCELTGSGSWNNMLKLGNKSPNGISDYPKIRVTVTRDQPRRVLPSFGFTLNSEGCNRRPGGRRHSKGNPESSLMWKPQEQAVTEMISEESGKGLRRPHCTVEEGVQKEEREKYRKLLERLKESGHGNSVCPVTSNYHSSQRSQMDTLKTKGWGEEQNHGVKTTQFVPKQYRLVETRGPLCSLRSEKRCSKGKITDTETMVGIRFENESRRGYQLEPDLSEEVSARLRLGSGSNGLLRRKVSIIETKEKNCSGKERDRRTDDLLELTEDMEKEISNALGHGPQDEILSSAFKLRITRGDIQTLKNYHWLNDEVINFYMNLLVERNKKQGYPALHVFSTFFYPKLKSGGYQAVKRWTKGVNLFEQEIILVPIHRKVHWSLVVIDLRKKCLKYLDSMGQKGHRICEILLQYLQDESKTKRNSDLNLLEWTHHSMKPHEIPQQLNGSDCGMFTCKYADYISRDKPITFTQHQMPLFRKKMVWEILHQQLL
Sequence of SENP6 (Q9GZR1 whole entry, species assumed): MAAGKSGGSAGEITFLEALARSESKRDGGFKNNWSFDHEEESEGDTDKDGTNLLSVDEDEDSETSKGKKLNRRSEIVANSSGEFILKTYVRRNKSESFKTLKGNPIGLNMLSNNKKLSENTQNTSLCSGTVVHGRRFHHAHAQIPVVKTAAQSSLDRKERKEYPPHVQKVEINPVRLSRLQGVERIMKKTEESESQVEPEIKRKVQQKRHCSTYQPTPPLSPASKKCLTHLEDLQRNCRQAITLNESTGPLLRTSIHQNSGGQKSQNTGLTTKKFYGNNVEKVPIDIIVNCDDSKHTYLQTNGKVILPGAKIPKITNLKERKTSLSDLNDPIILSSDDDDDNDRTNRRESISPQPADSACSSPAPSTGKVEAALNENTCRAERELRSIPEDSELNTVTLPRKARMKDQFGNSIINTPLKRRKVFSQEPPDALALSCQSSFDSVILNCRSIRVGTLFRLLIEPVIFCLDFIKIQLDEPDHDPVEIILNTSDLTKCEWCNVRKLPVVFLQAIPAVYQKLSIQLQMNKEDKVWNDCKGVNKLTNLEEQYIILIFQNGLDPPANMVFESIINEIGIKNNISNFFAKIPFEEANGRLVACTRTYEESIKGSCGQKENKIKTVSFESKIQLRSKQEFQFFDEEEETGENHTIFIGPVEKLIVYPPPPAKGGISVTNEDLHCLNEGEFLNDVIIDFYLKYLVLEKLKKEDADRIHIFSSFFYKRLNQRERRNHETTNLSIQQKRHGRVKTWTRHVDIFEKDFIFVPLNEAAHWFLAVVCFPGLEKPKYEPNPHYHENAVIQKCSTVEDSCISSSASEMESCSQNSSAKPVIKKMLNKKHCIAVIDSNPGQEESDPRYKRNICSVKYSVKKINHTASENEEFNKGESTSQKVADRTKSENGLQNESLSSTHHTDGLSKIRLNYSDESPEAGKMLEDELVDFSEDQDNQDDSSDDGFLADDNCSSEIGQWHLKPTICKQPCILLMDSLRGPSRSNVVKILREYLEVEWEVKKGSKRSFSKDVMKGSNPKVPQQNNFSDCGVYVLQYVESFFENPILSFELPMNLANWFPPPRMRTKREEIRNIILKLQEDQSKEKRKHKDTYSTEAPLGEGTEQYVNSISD

Ub(1-76)-aminoluciferin [Ub-LUC]: the “S/B increase relative to both Ub-AMC and Ub-Rhodamine110” value on USP7 and on USP2core was ~100 fold throughout. Further, the “fold greater S/B compared to Ub-rhodamine110” value in assay [1] was “more than 30 fold”. The “limit of detection (S/B>3) increased over Ub-rhodamine110” value in assay [1] is listed as “more than 30 fold”.

Consider “Z-Arg-Leu-Arg-Gly-Gly (SEQ ID NO: 1)-amino-luciferin [DUB-glo ™]”, for which the “signal (RLU, S/B)” value at SENP2 and on SENP6 was “gave signals” throughout.
